Assay results reported in US20260183297A1, “SELECTION OF PATIENTS FOR THE TREATMENT OF FADS1-MEDIATED DISEASES OR DISORDERS USING FADS-1 INHIBITORS” (AMGEN INC., priority 2022, published 2026).
“Also recorded” adds a separate entry of the source.

Tests used:
[1] = Plasma lipid, glucose, insulin and metabolic profile measurements in DIO mice; type: in vivo, mouse; details: for Alanine Aminotransferase / Cholesterol / HDL-Cholesterol / Insulin / LDL-Cholesterol / Non-esterified fatty acids / Triglycerides: DIO mice plasma; for Alanine Aminotransferase / Cholesterol / HDL-Cholesterol / Insulin / LDL-Cholesterol / Non-esterified fatty acids / Triglycerides / C-reactive Protein / Glucose / Serum Amyloid A: mean ± SD
Description: Body weight was measured daily and used for dosing calculations. A 4-hour fasted retro-orbital blood sample was collected at baseline and day 46 and used for insulin, cholesterol, and triglyceride analysis. A 3-day average food consumption was measured on days 39-41. All animals received 0.1 ml of 2 mM ^13C5-DGLA by IP injection 23.5 hours after the last PO gavage with the different treatment to allow for 30 minutes of exposure prior to necropsy to determine the residual in vivo FADS1 activity.
Mice were bled consciously from the retro-orbital sinus, and blood was collected into EDTA plasma tubes. Plasma lipids were measured using the Olympus AU400e Chemistry Analyzer (Olympus America, Center Valley, PA). Plasma insulin was measured using the ALPCO mouse high range insulin ELISA (Alpco, Salem, NH). Blood glucose was measured using an AlphaTRAK blood glucometer (Zoetis, Parsippany, NJ).

[2] = Tissue endocannabinoid measurement (2-AG, AEA); type: in vivo, mouse; details: liver and ING WAT, DIO mice, 30 mg/kg
Description: Approximately 200 mg of tissue per sample were used for endocannbabinoid extraction. To each frozen tissue sample, 10 μl of ice-cold 100 mM butylated hydroxytoluene (BHT; in methanol) and 0.5 ml of 100 nM AEA-d8 (in water) were added. Tissue sample solution with BHT were immediately homogenized using TissueLyser (QIAGEN, Germantown. MD) for 3 minutes at 30 Hz, followed by two consecutive 1.25 ml of ice-cold ethyl acetate:hexane (9:1) extraction. The pooled extracts were dried to complete dryness under nitrogen gas. Dried samples were redissolved in 80% acetonitrile and subjected to LC/MS analysis. 10 μl of sample was injected onto a Kinetex C18 2.1×100 mm, 2.6 μm column (Phenomenex, Torrance, CA). Mobile phase A is 0.2% acetic acid in water and mobile phase B is 0.1% formic acid in acetonitrile. The LC gradient was a 7-minute long method at a flow rate of 0.2 ml/minute consisting of an isocratic period from 0 to 1 minute at 75% B, followed by a gradient from 75 to 100% from 1 to 4 minutes, and 100 to 75% B from 4 to 7 minutes. The analyte peak areas were quantified using the Analyst software (SCIEX, Framingham MA).

[3] = DIO mice, 10 mg kg^−1, 46 or 54 days
[4] = DIO mice, 30 mg kg^−1, 46 or 54 days
[5] = DIO mice, 10 and 30 mg/kg daily oral

COc1ccn2c(=O)c(-c3cnn(CC(F)(F)C(F)(F)F)c3)c(C(F)(F)F)nc2c1 [Compound A, 8-methoxy-3-(1-(2,2,3,3,3-pentafluoropropyl)-1H-pyrazol-4-yl)-2-(trifluoromethyl)-4H-pyrido[1,2-a]pyrimidin-4-one]
plasma liver enzyme alanine aminotransferase (ALT) ([1]; Compound A-treated DIO mice): decreased
Alanine Aminotransferase ([1]; 10 mg kg^−1, 46 or 54 days): 142.8 ± 26.6 U L^−1
Cholesterol ([1]; 10 mg kg^−1, 46 or 54 days): 173.0 ± 11.9 mg/dL
HDL-Cholesterol ([1]; 10 mg kg^−1, 46 or 54 days): 86.4 ± 8.0 mg/dL
Insulin ([1]; 10 mg kg^−1, 46 or 54 days): 3.7 ± 3.2 ng/mL
LDL-Cholesterol ([1]; 10 mg kg^−1, 46 or 54 days): 22.4 ± 2.3 mg/dL
Non-esterified fatty acids ([1]; 10 mg kg^−1, 46 or 54 days): 0.9 ± 0.1 mEq L^−1
Triglycerides ([1]; 10 mg kg^−1, 46 or 54 days): 77.8 ± 13.7 mg/dL
Alanine Aminotransferase ([1]; 30 mg kg^−1, 46 or 54 days): 102.0 ± 32.4 U L^−1
Cholesterol ([1]; 30 mg kg^−1, 46 or 54 days): 165.3 ± 15.6 mg/dL
HDL-Cholesterol ([1]; 30 mg kg^−1, 46 or 54 days): 85.7 ± 5.5 mg/dL
Insulin ([1]; 30 mg kg^−1, 46 or 54 days): 2.2 ± 1.3 ng/mL
LDL-Cholesterol ([1]; 30 mg kg^−1, 46 or 54 days): 19.7 ± 2.5 mg/dL
Non-esterified fatty acids ([1]; 30 mg kg^−1, 46 or 54 days): 0.7 ± 0.1 mEq L^−1
Triglycerides ([1]; 30 mg kg^−1, 46 or 54 days): 63.3 ± 9.7 mg/dL
C-reactive Protein [1, 3]: 43.6 ± 9.7 µg/mL
Glucose [1, 3]: 170.3 ± 22.3 mg/dL
Serum Amyloid A [1, 3]: 5.2 ± 1.3 µg/mL
plasma insulin decrease vs vehicle ([1]; DIO mice, 10 mg/kg daily oral): 74.9%
C-reactive Protein [1, 4]: 37.1 ± 6.5 µg/mL
Glucose [1, 4]: 168.6 ± 23.2 mg/dL
Serum Amyloid A [1, 4]: 4.8 ± 1.8 µg/mL
lower plasma triglycerides vs vehicle ([1]; DIO mice, 30 mg/kg daily oral): 41.6%
plasma insulin decrease vs vehicle ([1]; DIO mice, 30 mg/kg daily oral): 84.7%
plasma cholesterol [1, 5]: lowered; also recorded: trended lower
plasma triglycerides [1, 5]: dose-dependent decreases
endocannabinoid (2-AG, AEA) levels [2]: Decreased levels of endocannabinoids
